What was measured:
[1] = tested on: ADP stimulated platelet aggregation in human, citrated, platelet-rich plasma; experiment: test (a): inhibition of ADP-induced aggregation of human platelet-rich plasma (Born); type: cell-based; details: ADP as agonist
From the text: (i) aggregating human, citrated, platelet-rich plasma by addition of adenosine diphosphate (ADP) so as to generate a dose-response curve;
(ii) generating a dose-response curve for ADP stimulated platelet aggregation in the presence of increasing amounts of a test compound (generally in the range 10^-5 M to 10^-10 M); and
(iii) calculating a pA2 value indicating potency of platelet aggregation inhibition for the test compound, averaged over several concentrations, from the calculated 50% response value for ADP aggregation in the presence and absence of the test compound.

[2] = molecular target: T1, purified human platelet fibrinogen receptor (GPIIb/IIIa) (Homo sapiens, UniProt P05106+P08514); experiment: test (b): GPIIb/IIIa ELISA, inhibition of biotinylated fibrinogen binding; details: biotinylated fibrinogen 10 nM, read-out: pIC50 (-log(IC50)), inhibition of biotinylated fibrinogen binding in test (b) (converted)
T1 construct: Glycoprotein IIb/IIIa is isolated from human platelet lysates; from tissue
Description: (i) Preparation of human platelet lysates. Platelet rich plasma (PRP) is harvested by centrifugation (1000 rpm, 15 minutes) of whole blood anticoagulated with acid citrate dextrose (trisodium citrate 85 mM, citric acid 70 mM, d-glucose 110 mM) 1 part to 6 parts blood. Prostacyclin (PGI2, 1 μM) is added to the PRP before centrifugation (2400 rpm, 15 mins) and the resulting pellet is resuspended in modified Tyrodes' solution (NACl 130 mM, […], NaHCO3 12 mM, NaH2 PO4 0.5 mM, MgCl2 1 mM, […], Glucose 12 mM, HEPES 5 mM) containing bovine serum albumin 3.5 g/L, PGI2 1 μM and hirudin 0.5 U/ml. The platelet suspension is centrifuged (2400 rpm, 15 minutes) and the resultant pellet resuspended in 500 μl of lysis buffer (octyl glucoside 50 mM, HEPES 10 mM, NaCl 150 mM, CaCl2 1 mM, MgCl2 1 mM, PMSF 1 mM, NEM 10 mM, leupeptin 0.1 mM), agitated at 4° C. for 15 minutes then centrifuged at 24000 rpm, 15 minutes. The supernatant is stored at 4° C. and the pellet re-suspended in 500 μl of lysis buffer. […]
(iii) GPIIb/IIIa ELISA 96 well microtitre plates are coated with 100 μl purified human platelet fibrinogen receptor (GPIIb/IIIa) diluted in coating buffer (Tris-HCl 20 mM, NaCl 150 mM, CaCl2 1 mM, pH7.4) and left overnight at 4° C. […] Colour is allowed to develop for 10-15 minutes before optical densities are read at 650 nm. […]

[3] = tested on: aggregation of human blood platelets; experiment: test (a) modified, ex vivo after oral dosing to dogs; type: in vivo; details: 1 mg/kg
Description: Test (a) may be modified so as to assess the effects of a test compound ex vivo on the aggregation of human blood platelets after administration of the test compound to a laboratory animal, such as a rat, rabbit, guinea pig, mouse or dog. For example, groups of four male, fasted Alderley Park Wistar rats are orally dosed with a test compound or appropriate vehicle, and at suitable time intervals (1, 3, 5 and 8 hours after dosing) animals are anaesthetised with fluothane and bled by heart puncture. Blood is collected into 3.2% citrate (1 part to 9 parts whole blood) and platelet poor plasma (ppp) prepared by centrifugation (4500×g for 10 minutes). […]
Equal volumes (125 μl) of rat ppp and human prp are mixed together, ADP added, and the whole incubated (37° C.) and stirred (900 rpm) in a BioData platelet aggregometer. Aggregation is induced with ADP and agonist EC50 values calculated for human prp/rat ppp mixtures from animals dosed with test compound or vehicle. A mean concentration ratio (concentration of ADP required to cause a 50% aggregation response in human prp/rat ppp mixtures from animals dosed with antagonist, divided by the concentration of ADP to cause 50% aggregation in human prp/rat ppp mixtures from animals dosed with vehicle) is calculated at each time point.

T1 sequence (P08514 32-887 limits assumed): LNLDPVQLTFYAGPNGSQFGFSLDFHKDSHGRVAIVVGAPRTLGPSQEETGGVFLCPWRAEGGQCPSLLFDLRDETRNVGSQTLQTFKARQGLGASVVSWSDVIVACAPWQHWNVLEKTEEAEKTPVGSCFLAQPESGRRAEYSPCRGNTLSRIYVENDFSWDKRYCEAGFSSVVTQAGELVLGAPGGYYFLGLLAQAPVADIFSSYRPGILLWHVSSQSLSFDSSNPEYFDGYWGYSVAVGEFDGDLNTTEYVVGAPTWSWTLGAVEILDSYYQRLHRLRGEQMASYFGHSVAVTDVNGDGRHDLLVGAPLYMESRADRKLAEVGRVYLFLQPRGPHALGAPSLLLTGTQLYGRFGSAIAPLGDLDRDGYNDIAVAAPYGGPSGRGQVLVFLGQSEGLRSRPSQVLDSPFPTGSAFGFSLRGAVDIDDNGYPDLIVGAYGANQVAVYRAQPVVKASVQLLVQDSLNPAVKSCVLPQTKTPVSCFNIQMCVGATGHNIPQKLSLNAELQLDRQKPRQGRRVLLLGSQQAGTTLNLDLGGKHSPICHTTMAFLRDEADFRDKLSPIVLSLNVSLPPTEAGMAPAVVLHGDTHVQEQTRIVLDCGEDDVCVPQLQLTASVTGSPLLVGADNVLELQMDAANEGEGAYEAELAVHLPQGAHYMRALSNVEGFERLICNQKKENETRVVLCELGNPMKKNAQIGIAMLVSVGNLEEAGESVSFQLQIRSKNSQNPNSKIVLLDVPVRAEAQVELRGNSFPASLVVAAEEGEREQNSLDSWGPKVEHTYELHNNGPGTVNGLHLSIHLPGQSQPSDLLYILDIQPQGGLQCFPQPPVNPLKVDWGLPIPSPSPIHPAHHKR
T1 sequence (P08514 891-1039 limits assumed): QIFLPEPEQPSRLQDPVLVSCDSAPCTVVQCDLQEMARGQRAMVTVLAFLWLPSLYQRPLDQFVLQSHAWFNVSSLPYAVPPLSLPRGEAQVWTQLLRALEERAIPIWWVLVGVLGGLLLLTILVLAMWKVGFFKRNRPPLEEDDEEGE
T1 sequence (P05106 27-788): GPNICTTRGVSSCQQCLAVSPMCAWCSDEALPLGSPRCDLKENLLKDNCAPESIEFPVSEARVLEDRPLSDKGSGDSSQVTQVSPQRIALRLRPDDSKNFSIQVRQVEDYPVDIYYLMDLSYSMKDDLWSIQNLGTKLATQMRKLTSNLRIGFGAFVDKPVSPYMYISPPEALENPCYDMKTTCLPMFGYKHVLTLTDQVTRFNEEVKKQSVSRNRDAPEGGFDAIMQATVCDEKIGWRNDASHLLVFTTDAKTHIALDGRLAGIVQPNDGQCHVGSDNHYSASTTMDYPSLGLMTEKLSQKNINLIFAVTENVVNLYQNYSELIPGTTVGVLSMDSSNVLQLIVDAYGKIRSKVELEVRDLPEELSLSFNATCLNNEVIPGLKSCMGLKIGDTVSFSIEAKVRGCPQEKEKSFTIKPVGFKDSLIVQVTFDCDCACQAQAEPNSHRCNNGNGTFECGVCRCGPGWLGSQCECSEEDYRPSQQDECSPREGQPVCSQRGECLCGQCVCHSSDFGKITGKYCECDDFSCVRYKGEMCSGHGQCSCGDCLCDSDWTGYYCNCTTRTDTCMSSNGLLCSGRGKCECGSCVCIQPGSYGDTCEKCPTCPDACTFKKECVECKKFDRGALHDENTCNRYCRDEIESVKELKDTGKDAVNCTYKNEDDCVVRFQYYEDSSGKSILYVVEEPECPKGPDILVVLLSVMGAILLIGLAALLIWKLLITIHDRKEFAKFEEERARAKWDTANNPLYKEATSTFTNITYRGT

## COC(=O)COc1ccc(NC(=O)NC(=O)c2ccc(C(=N)N)cc2)cc1 [Example 1, Methyl 4-[3-(4-amidinobenzoyl)ureido]phenoxyacetate]
[1]
  pA2, potency of platelet aggregation inhibition in test (a): 7.6
[2]
  IC50: 316 nM

## N=C(N)c1ccc(C(=O)NC(=O)Nc2ccc(OCC(=O)O)cc2)cc1 [Example 3, 4-[3-(4-Amidinobenzoyl)ureido]phenoxyacetic acid]
[1]
  pA2, potency of platelet aggregation inhibition in test (a): 8.4
[2]
  IC50: 2.51 nM

## CC(C)(C)OC(=O)COc1ccc(NC(=O)NC(=O)c2ccc(C(=N)N)cc2)cc1 [Example 2, t-Butyl 4-[3-(4-amidinobenzoyl)ureido]phenoxyacetate]
[3]
  duration of activity when dosed orally: up to 8 hours
